27 compounds from patent publication US20050197338A1, “Substituted pyrazole urea compounds for the treatment of inflammation” (priority 2003, published 2005) can be followed below.

SMILES strings stand for the structures.

The experiment has as its target T1, human IKK-2 (rhIKK-2 homodimer) (Homo sapiens, UniProt O14920).
T1 construct: FLAG (DYKDDDDKD) (C); made in house; host or cells: insect cells (baculovirus, pFastBac)
T1 sequence (O14920 1-756): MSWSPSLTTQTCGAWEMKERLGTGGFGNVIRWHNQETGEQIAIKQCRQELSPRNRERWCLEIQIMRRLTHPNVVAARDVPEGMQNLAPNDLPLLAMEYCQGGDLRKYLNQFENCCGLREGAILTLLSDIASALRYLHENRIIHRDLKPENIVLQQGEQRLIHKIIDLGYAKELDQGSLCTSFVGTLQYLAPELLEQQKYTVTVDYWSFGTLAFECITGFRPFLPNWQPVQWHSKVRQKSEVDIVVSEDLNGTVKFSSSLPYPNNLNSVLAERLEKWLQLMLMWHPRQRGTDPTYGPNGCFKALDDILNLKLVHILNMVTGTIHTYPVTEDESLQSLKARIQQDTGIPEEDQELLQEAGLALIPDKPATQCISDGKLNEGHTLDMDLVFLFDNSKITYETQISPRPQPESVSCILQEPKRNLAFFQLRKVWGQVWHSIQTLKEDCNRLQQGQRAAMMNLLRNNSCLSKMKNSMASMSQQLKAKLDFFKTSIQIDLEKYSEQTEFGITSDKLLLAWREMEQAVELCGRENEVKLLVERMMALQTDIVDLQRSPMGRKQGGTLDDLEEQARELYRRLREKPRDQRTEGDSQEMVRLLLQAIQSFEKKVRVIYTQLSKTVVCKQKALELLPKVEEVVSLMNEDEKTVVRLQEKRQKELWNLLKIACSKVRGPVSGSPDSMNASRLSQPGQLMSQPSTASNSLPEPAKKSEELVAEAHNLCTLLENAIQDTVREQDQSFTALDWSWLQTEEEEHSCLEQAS
The experiment can be described thus: IKK-2 Resin Enzyme Assay (Human IKK-2 Enzyme Assay). Conditions: human IKK-2, resin enzyme assay; read-out: IC50 (μM) hIKK-2. The class given is biochemical. Put shortly:
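C-terminally FLAG-tagged human IKK-2 homodimer, baculovirus-expressed in insect cells and anti-FLAG purified. Reaction mix: 5 μM biotinylated IκBα peptide (Ser32/Ser36 region), 1 μM ATP with [γ-33P]ATP, 2 mM MgCl2, 2 mM MnCl2, 10 mM NaF, 1 mM DTT, 25 mM HEPES pH 7.6. Incubated 30 min at 25 °C; IC50 derived.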
`NC(=O)Nc1cn(-c2ccc(Br)c(C(F)(F)F)c2)nc1C(N)=O` [Example 1, 4-[(aminocarbonyl)amino]-1-[4-bromo-3-(trifluoromethyl)phenyl]-1H-pyrazole-3-carboxamide]: the IC50 was found to be 0.307 µM. Consider `CCOc1cc(-n2cc(NC(N)=O)c(C(N)=O)n2)ccc1Br` [Example 3, 4-[(aminocarbonyl)amino]-1-(4-bromo-3-ethoxyphenyl)-1H-pyrazole-3-carboxamide], for which the half-maximal inhibitory concentration (IC50) is 1.35 µM.

For `Cc1cc(I)ccc1-n1cc(NC(N)=O)c(C(N)=O)n1` [Example 4, 1-(4-iodo-2-methyl-phenyl)-4-ureido-1H-pyrazole-3-carboxylic acid amide], the IC50 worked out at 2.87 µM. On to `Cc1cc(-c2cccc(O)c2)ccc1-n1cc(NC(N)=O)c(C(N)=O)n1` [Example 5, 4-[(aminocarbonyl)amino]-1-(3′-hydroxy-3-methyl-1,1′-biphenyl-4-yl)-1H-pyrazole-3-carboxamide], for which the IC50 was 5.09 µM. The value for `NC(=O)Nc1cn(-c2ccc(-c3cccc(O)c3)c(Cl)c2)nc1C(N)=O` [Example 7, 4-[(aminocarbonyl)amino]-1-(2-chloro-3′-hydroxy-1,1′-biphenyl-4-yl)-1H-pyrazole-3-carboxamide] was 0.355 µM; that for `Cc1cc(-n2cc(NC(N)=O)c(C(N)=O)n2)ccc1I` [Example 8, 1-(4-iodo-3-methyl-phenyl)-4-ureido-1H-pyrazole-3-carboxylic acid amide] was 0.0676 µM. The value for `CNC(=O)Nc1cn(-c2cccc(Br)c2)nc1C(N)=O` [Example 15, 1-(3-bromophenyl)-4-{[(methylamino)carbonyl]amino}-1H-pyrazole-3-carboxamide] was 8.05 µM.

As for `CNC(=O)Nc1cn(-c2ccc(Br)cc2)nc1C(N)=O` [Example 16, 1-(4-bromophenyl)-4-{[(methylamino)carbonyl]amino}-1H-pyrazole-3-carboxamide], the concentration for half-maximal inhibition (IC50) was 3.1 µM. The value for `NC(=O)Nc1cn(-c2ccc(Br)cc2)nc1C(N)=O` [Example 19, 1-(1-(4-bromophenyl)-3-carbamoyl-1H-pyrazol-4-yl)urea] was 0.31 µM.

For `NC(=O)Nc1cn(-c2cccc(-c3ccc(F)cc3O)c2)nc1C(N)=O` [Example 92, 4-[(aminocarbonyl)amino]-1-(4′-fluoro-2′-hydroxy-1,1′-biphenyl-3-yl)-1H-pyrazole-3-carboxamide], the half-inhibitory concentration (IC50) came to 6.61 µM. Regarding `NC(=O)Nc1cn(-c2cccc(-c3cc(F)ccc3O)c2)nc1C(N)=O` [Example 93, 4-[(aminocarbonyl)amino]-1-(5′-fluoro-2′-hydroxy-1,1′-biphenyl-3-yl)-1H-pyrazole-3-carboxamide], the half-inhibitory concentration (IC50) is 3.1 µM.

Take `N#CCOc1ccc(F)cc1-c1cccc(-n2cc(NC(N)=O)c(C(N)=O)n2)c1` [Example 94, 4-[(aminocarbonyl)amino]-1-[2′-(cyanomethoxy)-5′-fluoro-1,1′-biphenyl-3-yl]-1H-pyrazole-3-carboxamide]: the IC50 is 0.22 µM. Turning to `NC(=O)Nc1cn(-c2ccc(-c3ccc(C(=O)O)c(F)c3)cc2)nc1C(N)=O` [Example 97, 4′-{3-(aminocarbonyl)-4-[(aminocarbonyl)amino]-1H-pyrazol-1-yl}-3-fluoro-1,1′-biphenyl-4-carboxylic acid], the half-maximal inhibitory concentration (IC50) was found to be 0.14 µM. As for `NC(=O)Nc1cn(-c2ccc(-c3ccc(F)cc3O)cc2)nc1C(N)=O` [Example 98, 4-[(aminocarbonyl)amino]-1-(4′-fluoro-2′-hydroxy-1,1′-biphenyl-4-yl)-1H-pyrazole-3-carboxamide], the IC50 is 1.04 µM. Consider `NC(=O)Nc1cn(-c2ccc(-c3cc(F)ccc3O)cc2)nc1C(N)=O` [Example 99, 4-[(aminocarbonyl)amino]-1-(5′-fluoro-2′-hydroxy-1,1′-biphenyl-4-yl)-1H-pyrazole-3-carboxamide], for which the IC50 was 0.75 µM. With `N#Cc1ccc(-c2ccc(-n3cc(NC(N)=O)c(C(N)=O)n3)cc2)cc1` [Example 100, 4-[(aminocarbonyl)amino]-1-(4′-cyano-1,1′-biphenyl-4-yl)-1H-pyrazole-3-carboxamide], the concentration for half-maximal inhibition (IC50) came to 1.15 µM. For `NC(=O)Nc1cn(-c2ccc(-c3ccccc3)cc2)nc1C(N)=O` [Example 101, 4-[(aminocarbonyl)amino]-1-(1,1′-biphenyl-4-yl)-1H-pyrazole-3-carboxamide], the IC50 was found to be 8.07 µM.

`NC(=O)Nc1cn(-c2ccc(-c3cc4ccccc4[nH]3)cc2)nc1C(N)=O` [Example 141, 4-[(aminocarbonyl)amino]-1-[4-(1H-indol-2-yl)phenyl]-1H-pyrazole-3-carboxamide]: the 50% inhibitory concentration (IC50) was determined as 11.4 µM. As to `CN(C)CCN(C)C(=O)c1ccc(-c2ccc(-n3cc(NC(N)=O)c(C(N)=O)n3)cc2)cc1F` [Example 160, 4-[(aminocarbonyl)amino]-1-(4′-{[[2-(dimethylamino)ethyl](methyl)amino]carbonyl}-3′-fluoro-1,1′-biphenyl-4-yl)-1H-pyrazole-3-carboxamide], the concentration for half-maximal inhibition (IC50) was found to be 4.79 µM. Take `NC(=O)Nc1cn(-c2ccc(-c3ccc(C(=O)OCc4ccccc4F)c(F)c3)cc2)nc1C(N)=O` [Example 162, 2-fluorobenzyl 4′-{3-(aminocarbonyl)-4-[(aminocarbonyl)amino]-1H-pyrazol-1-yl}-3-fluoro-1,1′-biphenyl-4-carboxylate]: the IC50 was 13.7 µM. For `NC(=O)Nc1cn(-c2ccc(-c3ccc(C(=O)OCc4cccc(F)c4)c(F)c3)cc2)nc1C(N)=O` [Example 163, 3-fluorobenzyl 4′-{3-(aminocarbonyl)-4-[(aminocarbonyl)amino]-1H-pyrazol-1-yl}-3-fluoro-1,1′-biphenyl-4-carboxylate], the half-inhibitory concentration (IC50) turned out to be 16.6 µM. The value for `NC(=O)Nc1cn(-c2ccc(-c3ccc(C(=O)OCc4ccc(F)cc4)c(F)c3)cc2)nc1C(N)=O` [Example 164, 4-fluorobenzyl 4′-{3-(aminocarbonyl)-4-[(aminocarbonyl)amino]-1H-pyrazol-1-yl}-3-fluoro-1,1′-biphenyl-4-carboxylate] was 11.3 µM; that for `N#CCOc1ccc(F)cc1-c1ccc(-n2cc(NC(N)=O)c(C(N)=O)n2)cc1` [Example 172, 4-[(aminocarbonyl)amino]-1-[2′-(cyanomethoxy)-5′-fluoro-1,1′-biphenyl-4-yl]-1H-pyrazole-3-carboxamide] was 0.044 µM.

With `N#CCOc1cc(F)ccc1-c1ccc(-n2cc(NC(N)=O)c(C(N)=O)n2)cc1` [Example 173, 4-[(aminocarbonyl)amino]-1-[2′-(cyanomethoxy)-4′-fluoro-1,1′-biphenyl-4-yl]-1H-pyrazole-3-carboxamide], the IC50 was found to be 0.15 µM.

For the compound `CC(C)(C)OC(=O)COc1cccc(-c2ccc(-n3cc(NC(N)=O)c(C(N)=O)n3)cc2)c1` [Example 174, tert-butyl [(4′-{3-(aminocarbonyl)-4-[(aminocarbonyl)amino]-1H-pyrazol-1-yl}-1,1′-biphenyl-3-yl)oxy]acetate], the IC50 is 3.67 µM.

Consider `NC(=O)COc1cccc(-c2ccc(-n3cc(NC(N)=O)c(C(N)=O)n3)cc2)c1` [Example 175, 4-[(aminocarbonyl)amino]-1-[3′-(2-amino-2-oxoethoxy)-1,1′-biphenyl-4-yl]-1H-pyrazole-3-carboxamide], for which the 50% inhibitory concentration (IC50) was 0.18 µM.

With `N#CCCc1cccc(-c2ccc(-n3cc(NC(N)=O)c(C(N)=O)n3)cc2)c1` [Example 186, 4-[(aminocarbonyl)amino]-1-[3′-(2-cyanoethyl)-1,1′-biphenyl-4-yl]-1H-pyrazole-3-carboxamide], the concentration for half-maximal inhibition (IC50) was found to be 0.86 µM.

As usually defined, the IC50 is the concentration at which inhibition is half-maximal.
